Measured values reported in PMC12446468, “Anti-inflammatory and cytotoxic assessment of flavonoids isolated from Viola odorata flowers with computer-guided docking study” (Scientific Reports, 2025).

Target: T1, 5-LOX enzyme (human recombinant) (Homo sapiens, UniProt P09917)
T1 construct: purchased Sigma-Aldrich 437996
T1 sequence (P09917 1-674): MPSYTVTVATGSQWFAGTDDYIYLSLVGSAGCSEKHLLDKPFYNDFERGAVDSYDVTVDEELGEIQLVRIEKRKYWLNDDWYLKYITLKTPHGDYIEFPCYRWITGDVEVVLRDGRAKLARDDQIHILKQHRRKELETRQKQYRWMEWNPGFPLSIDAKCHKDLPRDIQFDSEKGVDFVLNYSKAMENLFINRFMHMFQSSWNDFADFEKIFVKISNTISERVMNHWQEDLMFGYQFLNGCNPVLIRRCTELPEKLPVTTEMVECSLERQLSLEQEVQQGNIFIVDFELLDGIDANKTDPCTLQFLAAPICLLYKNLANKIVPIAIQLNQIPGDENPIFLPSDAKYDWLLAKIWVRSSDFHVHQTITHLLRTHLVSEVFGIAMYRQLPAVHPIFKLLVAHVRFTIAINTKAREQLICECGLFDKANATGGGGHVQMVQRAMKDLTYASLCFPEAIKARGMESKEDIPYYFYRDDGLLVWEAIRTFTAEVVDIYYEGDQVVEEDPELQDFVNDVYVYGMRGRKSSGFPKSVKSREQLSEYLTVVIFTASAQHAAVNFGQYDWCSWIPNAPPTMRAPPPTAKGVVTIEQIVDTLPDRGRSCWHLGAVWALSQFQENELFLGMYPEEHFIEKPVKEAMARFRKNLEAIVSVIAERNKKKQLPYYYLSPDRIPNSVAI
Experiment: 5-lipoxygenase inhibition assay (5-LOX kit)
Type: biochemical
Conditions: mean ± SE, n = 3
Description: The requirements for High-Performance Liquid Chromatography (HPLC) and all compounds tested were of the utmost analytical purity. […] COX-1 and COX-2 (ovine/human), as well as the 5-LOX enzyme (human recombinant) were obtained from Sigma-Aldrich. Dulbecco’s Modified Eagle’s Medium (DMEM), along with penicillin/streptomycin and L-glutamine, were acquired from Gibco BRL, California, USA. Fetal bovine serum (FBS) and 3-(4, 5-dimethylthiazol-2-yl)-2, 5-[…] (MTT) were supplied by Sigma-Aldrich, St. Louis, Missouri, USA.
The methanolic extract of V. odorata flowers and isolated flavonoids were subjected to an in vitro anti-inflammatory assessment by inhibiting two isoenzymes, cyclooxygenase COX-1 and COX-2 (ovine/human), as well as the 5-LOX enzyme (human recombinant).

An IC50 of 3.14 µM was found for COc1c(O)cc2oc(-c3ccccc3)c(OC)c(=O)c2c1O [5,7-Dihydroxy-3,6-dimethoxyflavone] in this work.
